Measured values published in patent US10167299B2, “1-(3-aminopropyl) substituted cyclic amine compounds, preparation method therefor, and pharmaceutical compositions and uses thereof” (SHANGHAI INSTITUTE OF MATERIA MEDICA, CHINESE ACADEMY OF …, priority 2013, dated 2019).
In brackets after ≈: the same amount, converted by molar mass.

Tests used:
[1] = Toxicity test of compounds on PBMC cells (MTT); type: cell-based; conditions: human; PBMC cells (Table 4)
Experimental: (§1) The compound to be tested was subject to 5-fold dilution in a 96-well microtiter plate with RPMI-1640 or DMEM complete medium (containing 10% FBS) (Six dilution) triplicate for each dilution and 100 μl for each well. While wells not containing drugs were set as control. Into each well was added 100 μl of 4×10^5/ml PM1, HOS-CD4-CCR5 cells or 100 μl of 5×10^6/ml PHA stimulated PBMC. The cells were cultured at 37° C. with 5% CO2 for three days (PBMC cells were cultured for seven days and 100 μl of fresh RPMI-1640 complete medium was supplemented on the third day). Cytotoxicity was tested with MTT assay. OD values were measured by ELx800 microplate reader. The detection wavelength was 570 nm, and the reference wavelength was 630 nm.

HIV-1Ba-L virus strain [2] = assay: Inhibition of viral replication in HOS-CD4-CCR5 cells infected with HIV-1Ba-L; type: cell-based; conditions: for EC50: Human immunodeficiency virus 1, HOS-CD4-CCR5
Experimental: (§2) On the day before the test, 1×10^5/ml of HOS-CD4-CCR5 cells were inoculated in 96-well plates with 100 μl for each well. The compound to be tested was subject to 5-fold dilution in 96-well microtiter plate with DMEM complete medium (containing 10% FBS). The starting concentration was 1 μM and six dilutions were obtained. Triplicate wells were set for each dilution and each well contained 100 μl mixture. While wells not containing drugs were set as control. The supernatant was removed and 100 μl of drug was added and incubated for 2 h. Then 100 μl of HIV-1SF162 and HIV-1Ba-L were added to dilute supernatant. The cells were infected for 1 h, free virus was washed out and drug with the same final concentration was added. MVC was used as positive control. The cells were cultured at 37° C. with 5% CO2 for three days. The supernatant was collected, lysed and inactivated with 0.5% Triton X-100. The inhibition effect of drug on HIV-1 replication was detected using p24 antigen capture ELISA method.

HIV-1Ba-L virus strain [3] = assay: Inhibition of viral replication in PBMC infected with HIV-1Ba-L; type: cell-based; conditions: for EC50: Human immunodeficiency virus 1, PBMC
Experimental: (§3) The virus was titrated according to the modified method of Johnson & Byington. Briefly, the HIV-1 stock solution was subject to four-fold dilution in a 96-well plate (ten gradients) sextuplicate for each gradient, while setting six control-wells. Into each well was added 100 μl (5×10^6/ml) PHA-stimulated PBMC cells and final volume per well was 200 μl. The cells were cultured at 37° C. with 5% CO2. On the third day, 100 μl of fresh RPMI-1640 complete medium was supplemented. On the seventh day, the infected supernatant was collected and lysed with 0.5% Triton X100. The p24 antigen was detected by ELISA and TCID50 of virus was calculated according to Reed & Muench method (50% Tissue culture infection dose).
(§4) The compound to be tested was subject to 5-fold dilution in 48-well plate with RPMI-1640 complete medium (containing 10% FBS). The starting concentration was 1 μM, six dilutions were obtained, and each well contained 200 μl mixture. While wells not containing drugs were set as control. Virus (MOI=0.01) was added to 5×10^6/ml of PBMC cells which have been stimulated by PHA for 72 h. After homogeneously mixed, the mixture was immediately added to 48-well plate containing diluted drug and each well was added with 200 μl of mixture. MVC was used as positive control. The cells were cultured at 37° C. with 5% CO2 for seven days (drug with the same concentration was added on the third day). The supernatant was collected, lysed and inactivated with 0.5% Triton X-100. The inhibition effect of drug on HIV-1 replication was detected using p24 antigen capture ELISA method.

HIV-1SF162 virus strain [4] = assay: Inhibition of viral replication in HOS-CD4-CCR5 cells infected with HIV-1SF162; type: cell-based; conditions: Human immunodeficiency virus 1, HOS-CD4-CCR5
Experimental: as §2

HIV-1SF162 virus strain [5] = assay: Inhibition activity on TZM-bl cells infected with HIV-1SF162; conditions: for EC50: Human immunodeficiency virus 1, TZM-bl; for therapeutic index (TI): TZM-bl cells infected with HIV-1SF162; for cytotoxicity in vitro and therapeutic index in words, versus positive control compound: TZM-bl cells infected with HIV-1SF162, conclusion from Table 3
[6] = Cytotoxicity (CC50) in TZM-bl cells; type: cell-based; conditions: human; TZM-bl cells (Table 3); read-out: CC50
HIV-1SF162 virus strain [7] = assay: Inhibition of viral replication in PBMC infected with HIV-1SF162; type: cell-based; conditions: Human immunodeficiency virus 1, PBMC
Experimental: as §3, with “On the third day, 100 μl of fresh RPMI-1640 complete medium was supplemented.” left out
as §4, with “The” for “The compound to be tested was subject to 5-fold dilution in 48-well plate with RPMI-1640 complete medium (containing 10% FBS). The”, “Virus (MOI=0.01) was added to 5×10^6/ml of PBMC cells which have been stimulated by PHA for 72 h.” left out

HIV-1KM018 virus strain = assay: Inhibition of viral replication in PBMC infected with HIV-1KM018; type: cell-based; conditions: for EC50: Human immunodeficiency virus 1, PBMC
Experimental: as §3, with “On the third day, 100 μl of fresh RPMI-1640 complete medium was supplemented.” left out
as §4, with “The” for “The compound to be tested was subject to 5-fold dilution in 48-well plate with RPMI-1640 complete medium (containing 10% FBS). The”, “Virus (MOI=0.01) was added to 5×10^6/ml of PBMC cells which have been stimulated by PHA for 72 h.” left out

in vivo = conditions: male, rat
Experimental: The administration volume was 10 mL/kg and drug was formulated with DMSO/Tween 80/physiological saline (5:5:90, v/v/v). […] 2 h after dosing, the rats ate together.
At above time points, 0.3 ml of venous blood was taken from retrobulbar venous plexus of the rat and loaded into EDTA-2K anticoagulative tube. After centrifuged at 11000 rpm for 5 mm, the plasma was separated and frozen at −20° C. in a refrigerator.
The concentration of each compound in rat plasma was determined by LC/MS/MS.
The pharmacokinetic parameters after administration were calculated by using non-compartment model of WinNonlin 5.3 software (Pharsight Corporation, USA).

[8] = Toxicity test of compounds on HOS-CD4-CCR5 cells (MTT); type: cell-based; conditions: human; HOS-CD4+-CCR5 cells (Table 7)
Experimental: as §1

SMILES	CC50 at 7 days [1] [mg/L]	EC50 (HIV-1Ba-L virus strain [2]) [mg/L]	EC50 (HIV-1Ba-L virus strain [3]) [mg/L]	EC50 (HIV-1SF162 virus strain [4]) [mg/L]	EC50 (HIV-1SF162 virus strain [5]) [mg/L]	therapeutic index (TI) (HIV-1SF162 virus strain [5])	cytotoxicity in vitro and therapeutic index in words, versus positive control compound (HIV-1SF162 virus strain [5])	EC50 (HIV-1SF162 virus strain [7]) [mg/L]	EC50 (HIV-1KM018 virus strain) [mg/L]	bioavailability (in vivo) [%]	AUC(0-t) (in vivo; 10 mg/kg) [µg·h/mL]	AUC(0-inf) (in vivo; po, 20 mg/kg) [µg·h/mL]	AUC(0-t) (in vivo; po, 20 mg/kg) [µg·h/mL]	Cmax (in vivo; po, 20 mg/kg) [µg/mL]	MRT (in vivo; po, 20 mg/kg) [h]	Tmax (in vivo; po, 20 mg/kg) [h]	half-life (in vivo; po, 20 mg/kg) [h]	CC50 at 3 days [8] [mg/L]	other results
Cc1nnc(C(C)C)n1C1CC2CCC(C1)N2CC[C@H](NC(=O)C1CCC(F)(F)CC1)c1ccsc1 (stereo partly drawn) [Compound 22, 4,4-difluoro-N-[(1S)-3-[exo-3-(3-isopropyl-5-methyl-4H-1,2,4-triazol-4-yl)-8-azabicyclo[3.2.1]octane-8-yl]-1-(thiophen-3-yl)propyl]cyclohexane-1-carboxamide]	635 (≈ 1220 µM)	0.00483 (≈ 0.00929 µM)	0.00513 (≈ 0.00987 µM)	0.00915 (≈ 0.0176 µM)	0.00153 (≈ 0.00294 µM)	>130718.95	better than positive control compound	0.00265 (≈ 0.0051 µM)	0.00533 (≈ 0.0103 µM)	14.5	4.15	1.26	1.21	0.306	2.55	2	1.55	> 800	CC50 [6]: > 200 mg/L; AUC(0-inf) (in vivo; iv, 10 mg/kg): 4.16 µg·h/mL; AUC(0-t) (in vivo; iv, 10 mg/kg): 4.15 µg·h/mL; Cmax (in vivo; iv, 10 mg/kg): 3.78 µg/mL; MRT (in vivo; iv, 10 mg/kg): 0.84 h; Tmax (in vivo; iv, 10 mg/kg): 0.25 h; half-life (in vivo; iv, 10 mg/kg): 1 h; bioavailability (in vivo; po, 20 mg/kg): 14.5%
Cc1ccc([C@H](CCN2C3CCC2CC(n2c(C)nnc2C(C)C)C3)NC(=O)C2CCC(F)(F)CC2)s1 (stereo partly drawn) [Compound 29, 4,4-difluoro-N-[(1S)-3-[exo-3-(3-isopropyl-5-methyl-4H-1,2,4-triazol-4-yl)-8-azabicyclo[3.2.1]octane-8-yl]-1-(5-methylthiophen-2-yl)propyl]cyclohexane-1-carboxamide]	> 200	0.0219 (≈ 0.041 µM)	0.236 (≈ 0.442 µM)	0.0186 (≈ 0.0348 µM)	0.012 (≈ 0.0225 µM)	>16666.67	comparable with the positive control compound	0.00505 (≈ 0.00946 µM)	0.103 (≈ 0.193 µM)	40.1	2.33	2.79	1.87	0.58	4.79	2	32.8	> 200	therapeutic index (TI) (HIV-1Ba-L virus strain [2]; HOS-CD4+-CCR5 cells infected with HIV-1Ba-L): >9144; therapeutic index (TI) (HIV-1Ba-L virus strain [3]; PBMC cells infected with HIV-1Ba-L): 818.3; CC50 at 3 days [6]: > 200 mg/L; therapeutic index (TI) (HIV-1KM018 virus strain; PBMC cells infected with HIV-1KM018): 1937.2; AUC(0-inf) (in vivo; 10 mg/kg): 2.33 µg·h/mL; Cmax (in vivo; 10 mg/kg): 1.69 µg/mL; MRT (in vivo; 10 mg/kg): 2.29 h; Tmax (in vivo; 10 mg/kg): 0.25 h; half-life (in vivo; 10 mg/kg): 1.6 h
